{"source": "paper PMC11397024", "about": "“Strategic Fluorination to Achieve a Potent, Selective, Metabolically Stable, and Orally Bioavailable Inhibitor of CSNK2” (Molecules, 2024)", "assay_in_all_cases": "NanoBRET K192", "format_in_all_cases": "cell-based", "key": {"NEK2": {"biological_target": "T1, NEK2 (Homo sapiens, UniProt P51955)", "T1 construct": "purchased Promega (NanoBRET Target Engagement K192 Kinase Selectivity System)", "conditions": "HEK293", "outline": "(§1)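 HEK293 cells were transfected overnight with NanoLuc–kinase fusion vectors, then treated for 2 h at 37 °C with compound (added as 100 μM working solution) plus K10 tracer. BRET was read at 450/610 nm after substrate and extracellular inhibitor, and fractional occupancy was calculated against no-compound controls.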"}, "MAPK9": {"biological_target": "T2, MAPK9 (Homo sapiens, UniProt P45984)", "T2 construct": "purchased Promega (NanoBRET Target Engagement K192 Kinase Selectivity System)", "conditions": "HEK293", "outline": "as §1"}, "MARK4": {"biological_target": "T3, MARK4 (Homo sapiens, UniProt Q96L34)", "T3 construct": "purchased Promega (NanoBRET Target Engagement K192 Kinase Selectivity System)", "conditions": "HEK293", "outline": "as §1"}, "IGF1R": {"biological_target": "T4, IGF1R (Homo sapiens, UniProt P08069)", "T4 construct": "host or cells: HEK293", "T4 sequence (P08069 31-1367)": "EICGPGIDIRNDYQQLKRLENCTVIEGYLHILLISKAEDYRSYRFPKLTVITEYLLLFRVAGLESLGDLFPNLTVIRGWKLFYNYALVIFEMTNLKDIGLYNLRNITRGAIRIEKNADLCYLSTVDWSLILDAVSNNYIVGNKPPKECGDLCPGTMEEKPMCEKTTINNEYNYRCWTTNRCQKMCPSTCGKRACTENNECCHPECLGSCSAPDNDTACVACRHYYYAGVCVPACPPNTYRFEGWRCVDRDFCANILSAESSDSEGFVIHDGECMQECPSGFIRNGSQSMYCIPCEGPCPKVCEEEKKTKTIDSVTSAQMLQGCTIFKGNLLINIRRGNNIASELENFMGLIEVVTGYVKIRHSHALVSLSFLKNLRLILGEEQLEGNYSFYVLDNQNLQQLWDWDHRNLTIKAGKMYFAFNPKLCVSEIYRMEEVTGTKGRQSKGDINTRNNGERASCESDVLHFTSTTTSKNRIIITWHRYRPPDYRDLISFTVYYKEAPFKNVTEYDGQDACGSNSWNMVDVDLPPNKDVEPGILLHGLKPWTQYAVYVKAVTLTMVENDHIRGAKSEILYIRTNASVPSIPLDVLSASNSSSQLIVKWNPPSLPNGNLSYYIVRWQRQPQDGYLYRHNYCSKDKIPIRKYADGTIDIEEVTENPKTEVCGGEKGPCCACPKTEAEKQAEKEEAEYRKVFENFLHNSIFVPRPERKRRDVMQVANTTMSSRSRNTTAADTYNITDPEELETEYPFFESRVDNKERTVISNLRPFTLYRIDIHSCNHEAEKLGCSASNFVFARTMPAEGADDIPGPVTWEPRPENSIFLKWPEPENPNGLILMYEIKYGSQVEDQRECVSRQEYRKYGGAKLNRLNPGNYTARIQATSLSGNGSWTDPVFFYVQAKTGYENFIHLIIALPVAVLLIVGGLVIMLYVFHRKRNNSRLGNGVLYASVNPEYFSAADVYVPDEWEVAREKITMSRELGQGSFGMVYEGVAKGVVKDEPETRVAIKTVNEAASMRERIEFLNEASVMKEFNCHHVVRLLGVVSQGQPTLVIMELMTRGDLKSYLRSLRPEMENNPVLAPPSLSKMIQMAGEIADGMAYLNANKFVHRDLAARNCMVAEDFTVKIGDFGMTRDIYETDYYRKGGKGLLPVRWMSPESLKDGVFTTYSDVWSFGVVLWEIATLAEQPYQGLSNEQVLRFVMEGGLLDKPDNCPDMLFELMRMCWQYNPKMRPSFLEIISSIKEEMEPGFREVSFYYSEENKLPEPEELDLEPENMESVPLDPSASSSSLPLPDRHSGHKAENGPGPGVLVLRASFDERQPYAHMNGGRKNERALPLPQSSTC", "conditions": "HEK293", "outline": "as §1"}, "DAPK2": {"biological_target": "T5, DAPK2 (Homo sapiens, UniProt Q9UIK4)", "T5 construct": "expressed in transfected cells; host or cells: HEK293", "T5 sequence (Q9UIK4 whole entry)": "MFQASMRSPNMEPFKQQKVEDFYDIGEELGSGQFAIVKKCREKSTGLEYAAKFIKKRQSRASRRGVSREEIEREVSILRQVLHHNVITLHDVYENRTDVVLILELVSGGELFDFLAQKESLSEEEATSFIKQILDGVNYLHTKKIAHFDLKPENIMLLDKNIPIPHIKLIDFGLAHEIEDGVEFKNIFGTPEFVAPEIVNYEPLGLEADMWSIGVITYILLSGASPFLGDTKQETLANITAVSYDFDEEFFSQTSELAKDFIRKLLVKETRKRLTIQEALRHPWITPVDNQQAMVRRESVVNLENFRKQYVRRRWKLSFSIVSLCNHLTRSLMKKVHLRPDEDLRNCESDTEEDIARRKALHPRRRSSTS", "outline": "as §1"}, "MAP3K9": {"biological_target": "T6, MAP3K9 (Homo sapiens, UniProt P80192)", "T6 construct": "purchased Promega (NanoBRET Target Engagement K192 Kinase Selectivity System)", "conditions": "HEK293", "outline": "as §1"}, "MAPK4": {"biological_target": "T7, MAPK4 (Homo sapiens, UniProt P31152)", "T7 construct": "purchased Promega (NanoBRET Target Engagement K192 Kinase Selectivity System)", "conditions": "HEK293", "outline": "as §1"}, "STK10": {"biological_target": "T8, STK10 (Homo sapiens, UniProt O94804)", "T8 construct": "purchased Promega (NanoBRET Target Engagement K192 Kinase Selectivity System)", "conditions": "HEK293", "outline": "as §1"}, "MYLK4": {"biological_target": "T9, MYLK4 (Homo sapiens, UniProt Q86YV6)", "T9 construct": "purchased Promega (NanoBRET Target Engagement K192 Kinase Selectivity System)", "conditions": "HEK293", "outline": "as §1"}, "HIPK3": {"biological_target": "T10, HIPK3 (Homo sapiens, UniProt Q9H422)", "T10 construct": "purchased Promega (NanoBRET Target Engagement K192 Kinase Selectivity System)", "conditions": "HEK293", "outline": "as §1"}, "LRRK2": {"biological_target": "T11, LRRK2 (Homo sapiens, UniProt Q5S007)", "T11 construct": "purchased Promega (NanoBRET Target Engagement K192 Kinase Selectivity System)", "conditions": "HEK293", "outline": "as §1"}, "TNK1": {"biological_target": "T12, TNK1 (Homo sapiens, UniProt Q13470)", "T12 construct": "purchased Promega (NanoBRET Target Engagement K192 Kinase Selectivity System)", "conditions": "HEK293", "outline": "as §1"}, "NEK1": {"biological_target": "T13, NEK1 (Homo sapiens, UniProt Q96PY6)", "T13 construct": "purchased Promega (NanoBRET Target Engagement K192 Kinase Selectivity System)", "T13 sequence (Q96PY6 whole entry)": "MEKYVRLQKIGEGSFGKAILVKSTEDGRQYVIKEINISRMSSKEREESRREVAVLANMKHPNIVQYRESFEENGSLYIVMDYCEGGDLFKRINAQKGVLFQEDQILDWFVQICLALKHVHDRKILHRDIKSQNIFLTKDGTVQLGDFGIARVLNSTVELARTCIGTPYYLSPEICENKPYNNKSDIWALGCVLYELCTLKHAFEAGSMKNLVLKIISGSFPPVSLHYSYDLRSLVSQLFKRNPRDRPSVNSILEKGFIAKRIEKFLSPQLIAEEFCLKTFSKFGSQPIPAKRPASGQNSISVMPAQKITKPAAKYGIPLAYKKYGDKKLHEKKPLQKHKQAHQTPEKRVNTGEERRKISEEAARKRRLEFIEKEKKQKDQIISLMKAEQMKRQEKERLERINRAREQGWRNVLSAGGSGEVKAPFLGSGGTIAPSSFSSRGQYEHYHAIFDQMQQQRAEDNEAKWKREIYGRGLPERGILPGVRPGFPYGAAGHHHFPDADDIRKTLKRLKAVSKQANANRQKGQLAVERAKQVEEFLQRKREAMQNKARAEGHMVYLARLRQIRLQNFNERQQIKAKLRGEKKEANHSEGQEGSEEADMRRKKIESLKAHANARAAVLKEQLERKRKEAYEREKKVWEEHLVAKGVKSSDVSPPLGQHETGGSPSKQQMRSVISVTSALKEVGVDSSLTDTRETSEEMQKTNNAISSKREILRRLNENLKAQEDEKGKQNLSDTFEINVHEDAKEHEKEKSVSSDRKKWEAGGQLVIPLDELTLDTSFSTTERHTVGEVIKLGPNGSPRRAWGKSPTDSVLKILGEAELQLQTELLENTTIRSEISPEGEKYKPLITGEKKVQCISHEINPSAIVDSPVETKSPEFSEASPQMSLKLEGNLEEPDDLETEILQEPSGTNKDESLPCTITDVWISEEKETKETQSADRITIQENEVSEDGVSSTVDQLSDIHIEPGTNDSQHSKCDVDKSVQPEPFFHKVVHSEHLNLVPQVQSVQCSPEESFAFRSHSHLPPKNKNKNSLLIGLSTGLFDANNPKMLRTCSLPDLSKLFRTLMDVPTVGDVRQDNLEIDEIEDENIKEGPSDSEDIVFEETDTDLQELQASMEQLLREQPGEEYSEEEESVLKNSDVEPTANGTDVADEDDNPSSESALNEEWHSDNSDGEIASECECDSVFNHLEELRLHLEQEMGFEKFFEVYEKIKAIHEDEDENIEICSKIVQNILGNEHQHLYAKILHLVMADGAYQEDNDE", "conditions": "HEK293", "outline": "as §1"}, "STK36": {"biological_target": "T14, STK36 (Homo sapiens, UniProt Q9NRP7)", "T14 construct": "host or cells: HEK293", "conditions": "HEK293", "outline": "as §1"}, "TLK1": {"biological_target": "T15, TLK1 (Homo sapiens, UniProt Q9UKI8)", "T15 construct": "host or cells: HEK293", "conditions": "HEK293", "outline": "as §1"}, "CDK9 + K": {"biological_target": "T16, CDK9 + K (Homo sapiens, UniProt P50750)", "T16 construct": "purchased Promega (NanoBRET Target Engagement K192 Kinase Selectivity System)", "conditions": "HEK293", "outline": "as §1"}, "CDK20 + H": {"biological_target": "T17, CDK20 + H (Homo sapiens, UniProt Q8IZL9)", "T17 construct": "purchased Promega (NanoBRET Target Engagement K192 Kinase Selectivity System)", "conditions": "HEK293", "outline": "as §1"}, "DYRK1B": {"biological_target": "T18, DYRK1B (Homo sapiens, UniProt Q9Y463)", "T18 construct": "purchased Promega (NanoBRET Target Engagement K192 Kinase Selectivity System)", "conditions": "HEK293", "outline": "as §1"}, "MARK2": {"biological_target": "T19, MARK2 (Homo sapiens, UniProt Q7KZI7)", "T19 construct": "purchased Promega (NanoBRET Target Engagement K192 Kinase Selectivity System)", "T19 sequence (Q7KZI7 whole entry)": "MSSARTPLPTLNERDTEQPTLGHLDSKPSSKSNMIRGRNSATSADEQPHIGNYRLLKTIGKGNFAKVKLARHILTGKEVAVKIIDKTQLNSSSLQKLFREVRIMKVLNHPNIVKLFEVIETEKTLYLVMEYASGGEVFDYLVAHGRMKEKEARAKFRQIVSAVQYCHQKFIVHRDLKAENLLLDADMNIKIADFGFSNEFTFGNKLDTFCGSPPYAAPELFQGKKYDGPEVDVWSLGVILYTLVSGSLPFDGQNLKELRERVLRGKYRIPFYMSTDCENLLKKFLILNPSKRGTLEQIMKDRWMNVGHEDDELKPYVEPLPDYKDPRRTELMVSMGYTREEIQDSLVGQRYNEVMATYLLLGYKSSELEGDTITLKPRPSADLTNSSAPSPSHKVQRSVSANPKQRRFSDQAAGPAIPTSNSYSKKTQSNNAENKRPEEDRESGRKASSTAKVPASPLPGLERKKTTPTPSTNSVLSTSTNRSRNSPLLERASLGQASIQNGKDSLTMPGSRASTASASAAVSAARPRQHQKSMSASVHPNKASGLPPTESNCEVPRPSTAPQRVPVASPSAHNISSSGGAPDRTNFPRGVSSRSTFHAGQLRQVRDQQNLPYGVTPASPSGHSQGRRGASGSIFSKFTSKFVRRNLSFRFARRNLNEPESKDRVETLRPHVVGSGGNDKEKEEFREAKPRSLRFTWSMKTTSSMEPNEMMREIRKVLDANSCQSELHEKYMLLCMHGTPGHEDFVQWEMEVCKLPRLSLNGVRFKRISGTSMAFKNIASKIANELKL", "conditions": "HEK293", "outline": "as §1"}, "NEK9": {"biological_target": "T20, NEK9 (Homo sapiens, UniProt Q8TD19)", "T20 construct": "purchased Promega (NanoBRET Target Engagement K192 Kinase Selectivity System)", "T20 sequence (Q8TD19 whole entry)": "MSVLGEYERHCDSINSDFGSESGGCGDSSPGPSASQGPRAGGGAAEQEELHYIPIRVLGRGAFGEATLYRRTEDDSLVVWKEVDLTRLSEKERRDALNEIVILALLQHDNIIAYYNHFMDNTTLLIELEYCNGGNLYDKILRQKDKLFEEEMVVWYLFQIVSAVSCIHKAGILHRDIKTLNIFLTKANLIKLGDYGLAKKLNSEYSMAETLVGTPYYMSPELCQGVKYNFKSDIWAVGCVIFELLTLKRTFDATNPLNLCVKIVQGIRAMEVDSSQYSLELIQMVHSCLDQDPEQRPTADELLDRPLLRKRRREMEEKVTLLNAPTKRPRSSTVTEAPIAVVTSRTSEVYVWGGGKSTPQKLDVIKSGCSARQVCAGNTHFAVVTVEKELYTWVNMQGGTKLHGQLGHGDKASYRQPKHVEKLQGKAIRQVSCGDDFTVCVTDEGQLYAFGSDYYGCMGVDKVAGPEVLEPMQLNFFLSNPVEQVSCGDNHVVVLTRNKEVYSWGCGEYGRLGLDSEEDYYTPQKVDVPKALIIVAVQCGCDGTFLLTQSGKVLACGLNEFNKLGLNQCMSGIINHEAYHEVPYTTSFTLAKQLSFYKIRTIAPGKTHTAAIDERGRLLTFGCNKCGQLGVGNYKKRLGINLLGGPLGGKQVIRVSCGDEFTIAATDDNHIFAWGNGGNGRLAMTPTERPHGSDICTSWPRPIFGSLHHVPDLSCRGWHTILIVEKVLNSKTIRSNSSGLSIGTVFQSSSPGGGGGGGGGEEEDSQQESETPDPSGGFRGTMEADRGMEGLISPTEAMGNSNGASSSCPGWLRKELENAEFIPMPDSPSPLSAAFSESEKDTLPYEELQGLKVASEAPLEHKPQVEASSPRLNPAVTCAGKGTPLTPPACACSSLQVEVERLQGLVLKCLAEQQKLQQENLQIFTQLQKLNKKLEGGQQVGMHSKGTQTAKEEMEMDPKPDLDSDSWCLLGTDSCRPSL", "conditions": "HEK293", "outline": "as §1"}, "AAK1": {"biological_target": "T21, AAK1 (Homo sapiens, UniProt Q2M2I8)", "T21 construct": "purchased Promega (NanoBRET Target Engagement K192 Kinase Selectivity System)", "conditions": "HEK293", "outline": "as §1"}, "SNF1LK2": {"biological_target": "T22, SNF1LK2 (Homo sapiens, UniProt Q9H0K1)", "T22 construct": "host or cells: HEK293", "conditions": "HEK293", "outline": "as §1"}, "STK17B": {"biological_target": "T23, STK17B (Homo sapiens, UniProt O94768)", "T23 construct": "purchased Promega (NanoBRET Target Engagement K192 Kinase Selectivity System)", "T23 sequence (O94768 whole entry)": "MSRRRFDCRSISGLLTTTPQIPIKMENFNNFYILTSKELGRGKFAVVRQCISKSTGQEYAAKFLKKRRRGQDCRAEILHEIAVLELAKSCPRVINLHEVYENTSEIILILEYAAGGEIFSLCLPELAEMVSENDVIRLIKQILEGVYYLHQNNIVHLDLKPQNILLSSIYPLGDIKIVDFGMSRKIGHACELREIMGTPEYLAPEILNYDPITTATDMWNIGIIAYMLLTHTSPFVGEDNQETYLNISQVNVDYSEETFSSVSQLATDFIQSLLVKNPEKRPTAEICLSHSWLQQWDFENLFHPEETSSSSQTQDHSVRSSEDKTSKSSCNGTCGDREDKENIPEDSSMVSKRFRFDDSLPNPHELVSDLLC", "conditions": "HEK293", "outline": "as §1"}, "RPS6KA1": {"biological_target": "T24, RPS6KA1 (Homo sapiens, UniProt Q15418)", "T24 construct": "purchased Promega (NanoBRET Target Engagement K192 Kinase Selectivity System)", "conditions": "HEK293", "outline": "as §1"}, "EPHA1": {"biological_target": "T25, EPHA1 (Homo sapiens, UniProt P21709)", "T25 construct": "purchased Promega (NanoBRET Target Engagement K192 Kinase Selectivity System)", "conditions": "HEK293", "outline": "as §1"}, "HIPK4": {"biological_target": "T26, HIPK4 (Homo sapiens, UniProt Q8NE63)", "T26 construct": "purchased Promega (NanoBRET Target Engagement K192 Kinase Selectivity System)", "conditions": "HEK293", "outline": "as §1"}, "EPHB1": {"biological_target": "T27, EPHB1 (Homo sapiens, UniProt P54762)", "T27 construct": "purchased Promega (NanoBRET Target Engagement K192 Kinase Selectivity System)", "conditions": "HEK293", "outline": "as §1"}, "AKT2": {"biological_target": "T28, AKT2 (Homo sapiens, UniProt P31751)", "T28 construct": "purchased Promega (NanoBRET Target Engagement K192 Kinase Selectivity System)", "conditions": "HEK293", "outline": "as §1"}}, "data": [{"compound": "CCC(=O)Nc1cc(Nc2cc(NC3CC3)n3ncc(C#N)c3n2)c(F)cc1N1CCC[C@H](NC)C1", "note": "[Compound 2, (S)-N-(5-((3-cyano-7-(cyclopropylamino)pyrazolo[1,5-a]pyrimidin-5-yl)amino)-4-fluoro-2-(3-(methylamino)piperidin-1-yl)phenyl)propionamide]", "values": [{"measurement": "receptor occupancy at 10 µM", "setting": "NEK2", "result": 4.2, "unit": "%"}, {"measurement": "receptor occupancy at 10 µM", "setting": "MAPK9", "result": 2.4, "unit": "%"}, {"measurement": "receptor occupancy at 10 µM", "setting": "MARK4", "result": 7.4, "unit": "%"}, {"measurement": "receptor occupancy at 10 µM", "setting": "IGF1R", "result": -2.6, "unit": "%"}, {"measurement": "% occupancy at 10 μM", "setting": "DAPK2; DAPK2, HEK293", "result": 72, "unit": "%"}, {"measurement": "receptor occupancy at 10 µM", "setting": "DAPK2; HEK293, DAPK2", "result": 72.1, "unit": "%"}, {"measurement": "receptor occupancy at 10 µM", "setting": "MAP3K9", "result": 4.3, "unit": "%"}, {"measurement": "receptor occupancy at 10 µM", "setting": "MAPK4", "result": 0.9, "unit": "%"}, {"measurement": "receptor occupancy at 10 µM", "setting": "STK10", "result": 14.4, "unit": "%"}, {"measurement": "receptor occupancy at 10 µM", "setting": "MYLK4", "result": 38.5, "unit": "%"}, {"measurement": "receptor occupancy at 10 µM", "setting": "HIPK3", "result": 25.5, "unit": "%"}, {"measurement": "receptor occupancy at 10 µM", "setting": "LRRK2", "result": -1.5, "unit": "%"}, {"measurement": "receptor occupancy at 10 µM", "setting": "TNK1", "result": 6.8, "unit": "%"}, {"measurement": "receptor occupancy at 10 µM", "setting": "NEK1", "result": -1.9, "unit": "%"}, {"measurement": "receptor occupancy at 10 µM", "setting": "STK36", "result": -7.6, "unit": "%"}, {"measurement": "receptor occupancy at 10 µM", "setting": "TLK1", "result": -23.1, "unit": "%"}, {"measurement": "receptor occupancy at 10 µM", "setting": "CDK9 + K", "result": 19.8, "unit": "%"}, {"measurement": "receptor occupancy at 10 µM", "setting": "CDK20 + H", "result": 23.4, "unit": "%"}, {"measurement": "receptor occupancy at 10 µM", "setting": "DYRK1B", "result": 38.3, "unit": "%"}, {"measurement": "receptor occupancy at 10 µM", "setting": "MARK2", "result": 14.2, "unit": "%"}, {"measurement": "receptor occupancy at 10 µM", "setting": "NEK9", "result": 1, "unit": "%"}, {"measurement": "receptor occupancy at 10 µM", "setting": "AAK1", "result": 17.8, "unit": "%"}, {"measurement": "receptor occupancy at 10 µM", "setting": "SNF1LK2", "result": -4.8, "unit": "%"}, {"measurement": "receptor occupancy at 10 µM", "setting": "STK17B", "result": 45.5, "unit": "%"}, {"measurement": "receptor occupancy at 10 µM", "setting": "RPS6KA1", "result": 7.1, "unit": "%"}, {"measurement": "receptor occupancy at 10 µM", "setting": "EPHA1", "result": 7.7, "unit": "%"}, {"measurement": "receptor occupancy at 10 µM", "setting": "HIPK4", "result": 39.9, "unit": "%"}, {"measurement": "receptor occupancy at 10 µM", "setting": "EPHB1", "result": 4.7, "unit": "%"}, {"measurement": "receptor occupancy at 10 µM", "setting": "AKT2", "result": 5.3, "unit": "%"}]}]}
